Assay results reported in ChEMBL document CHEMBL1147306, “Studies on inhibitors of skin tumor promotion, VI. Inhibitory effects of quinones on Epstein-Barr virus activation” (J Nat Prod, 1989).

What was measured:
Assay type in all cases: cell-based
Raji [1] = assay: Inhibition of TPA-induced EBV-early antigen activation in human Raji cells at 100 molar ratio after 48 hrs by indirect immunofluorescence technique relative to TPA; details: human gammaherpesvirus 4
[2] = Cytotoxicity against human Raji cells assessed as cell viability at 100 molar ratio; details: read-out: Activity
[3] = Cytotoxicity against human Raji cells assessed as cell viability at 500 molar ratio; details: read-out: Activity
Raji [4] = assay: Inhibition of TPA-induced EBV-early antigen activation in human Raji cells at 10 molar ratio after 48 hrs by indirect immunofluorescence technique relative to TPA; details: human gammaherpesvirus 4
Raji [5] = assay: Inhibition of TPA-induced EBV-early antigen activation in human Raji cells at 500 molar ratio after 48 hrs by indirect immunofluorescence technique relative to TPA; details: human gammaherpesvirus 4
[6] = Cytotoxicity against human Raji cells assessed as cell viability at 10 molar ratio; details: read-out: Activity
[7] = Cytotoxicity against human Raji cells assessed as cell viability at 1000 molar ratio; details: read-out: Activity

COCc1c(O)cc2c(c1O)C(=O)c1cccc(O)c1C2=O
EBV-EA activation % of TPA control (Raji [1]): 51.8% | viability at 100 molar ratio [2]: > 80% | viability at 500 molar ratio [3]: > 80% | EBV-EA activation % of TPA control (Raji [4]): 100% | EBV-EA activation % of TPA control (Raji [5]): 21% | viability at 10 molar ratio [6]: > 80% | viability at 1000 molar ratio [7]: > 80%

O=C1c2cccc(O)c2C(=O)c2cccc(O)c21 [ANTHRARUFIN]
EBV-EA activation % of TPA control (Raji [1]): 92.3% | viability at 100 molar ratio [2]: > 80% | viability at 500 molar ratio [3]: > 80% | EBV-EA activation % of TPA control (Raji [4]): 100% | EBV-EA activation % of TPA control (Raji [5]): 70.1% | viability at 10 molar ratio [6]: > 80% | viability at 1000 molar ratio [7]: 70%

O=C1c2ccc(O)cc2C(=O)c2ccc(O)cc21 [ANTHRAFLAVICACID]
EBV-EA activation % of TPA control (Raji [1]): 89.9% | viability at 100 molar ratio [2]: > 80% | viability at 500 molar ratio [3]: > 80% | EBV-EA activation % of TPA control (Raji [4]): 100% | EBV-EA activation % of TPA control (Raji [5]): 78.6% | viability at 10 molar ratio [6]: > 80% | viability at 1000 molar ratio [7]: > 80%

Cc1ccnc2c1C(=O)c1ccccc1-2 [ONYCHINE]
EBV-EA activation % of TPA control (Raji [1]): 100% | viability at 100 molar ratio [2]: > 80% | viability at 500 molar ratio [3]: > 80% | EBV-EA activation % of TPA control (Raji [4]): 100% | EBV-EA activation % of TPA control (Raji [5]): 94.1% | viability at 10 molar ratio [6]: > 80% | viability at 1000 molar ratio [7]: 70%

COc1ccc(OC)c2c1C(=O)c1nccc(C)c1C2=O
EBV-EA activation % of TPA control (Raji [1]): 100% | viability at 100 molar ratio [2]: > 80% | viability at 500 molar ratio [3]: > 80% | EBV-EA activation % of TPA control (Raji [4]): 100% | EBV-EA activation % of TPA control (Raji [5]): 100% | viability at 10 molar ratio [6]: > 80% | viability at 1000 molar ratio [7]: 70%

O=C1c2cccc(O)c2C(=O)c2c(O)cccc21 [DANTHRON]
EBV-EA activation % of TPA control (Raji [1]): 71.2% | viability at 100 molar ratio [2]: > 80% | viability at 500 molar ratio [3]: > 80% | EBV-EA activation % of TPA control (Raji [4]): 94.2% | EBV-EA activation % of TPA control (Raji [5]): 61.9% | viability at 10 molar ratio [6]: > 80% | viability at 1000 molar ratio [7]: > 80%

O=C1C=CC(=O)c2ccccc21 [NAPHTHOQUINONE]
EBV-EA activation % of TPA control (Raji [1]): 37.5% | viability at 100 molar ratio [2]: 50% | viability at 500 molar ratio [3]: 50% | EBV-EA activation % of TPA control (Raji [4]): 100% | EBV-EA activation % of TPA control (Raji [5]): 0% | viability at 10 molar ratio [6]: > 80% | viability at 1000 molar ratio [7]: 20%

O=C1c2ccccc2C(=O)c2occc21
EBV-EA activation % of TPA control (Raji [1]): 0% | viability at 100 molar ratio [2]: 10% | viability at 500 molar ratio [3]: 10% | EBV-EA activation % of TPA control (Raji [4]): 59.4% | EBV-EA activation % of TPA control (Raji [5]): 0% | viability at 10 molar ratio [6]: 70% | viability at 1000 molar ratio [7]: 0%

Cc1ccnc2c1C(=O)c1cccc(O)c1C2=O
EBV-EA activation % of TPA control (Raji [1]): 67.4% | viability at 100 molar ratio [2]: > 80% | viability at 500 molar ratio [3]: 60% | EBV-EA activation % of TPA control (Raji [4]): 89.1% | EBV-EA activation % of TPA control (Raji [5]): 15.4% | viability at 10 molar ratio [6]: > 80% | viability at 1000 molar ratio [7]: 40%

CC1(c2cc3c(o2)C(=O)c2ccccc2C3=O)OCCO1
EBV-EA activation % of TPA control (Raji [1]): 0% | viability at 100 molar ratio [2]: 10% | viability at 500 molar ratio [3]: 10% | EBV-EA activation % of TPA control (Raji [4]): 32.4% | EBV-EA activation % of TPA control (Raji [5]): 0% | viability at 10 molar ratio [6]: 60% | viability at 1000 molar ratio [7]: 0%

COCc1c(O)cc2c(c1O)C(=O)c1ccccc1C2=O
EBV-EA activation % of TPA control (Raji [1]): 80.4% | viability at 100 molar ratio [2]: > 80% | viability at 500 molar ratio [3]: > 80% | EBV-EA activation % of TPA control (Raji [4]): 100% | EBV-EA activation % of TPA control (Raji [5]): 77% | viability at 10 molar ratio [6]: > 80% | viability at 1000 molar ratio [7]: 60%

O=C1c2ccccc2C(=O)c2c(O)ccc(O)c21 [QUINIZARIN]
EBV-EA activation % of TPA control (Raji [1]): 100% | viability at 100 molar ratio [2]: > 80% | viability at 500 molar ratio [3]: > 80% | EBV-EA activation % of TPA control (Raji [4]): 100% | EBV-EA activation % of TPA control (Raji [5]): 100% | viability at 10 molar ratio [6]: > 80% | viability at 1000 molar ratio [7]: 70%

COc1c(C=O)c(O)cc2c1C(=O)c1ccccc1C2=O [DAMNACANTHAL]
EBV-EA activation % of TPA control (Raji [1]): 92.8% | viability at 100 molar ratio [2]: > 80% | viability at 500 molar ratio [3]: > 80% | EBV-EA activation % of TPA control (Raji [4]): 100% | EBV-EA activation % of TPA control (Raji [5]): 51.6% | viability at 10 molar ratio [6]: > 80% | viability at 1000 molar ratio [7]: 60%

CC1=C(C/C=C(\C)CCC[C@H](C)CCC[C@H](C)CCCC(C)C)C(=O)c2ccccc2C1=O [PHYTONADIONE]
EBV-EA activation % of TPA control (Raji [1]): 100% | viability at 100 molar ratio [2]: > 80% | viability at 500 molar ratio [3]: > 80% | EBV-EA activation % of TPA control (Raji [4]): 100% | EBV-EA activation % of TPA control (Raji [5]): 100% | viability at 10 molar ratio [6]: > 80% | viability at 1000 molar ratio [7]: 70%

Cc1ccnc2c1C(O)c1ccccc1-2 (configuration not stated)
EBV-EA activation % of TPA control (Raji [1]): 100% | viability at 100 molar ratio [2]: > 80% | viability at 500 molar ratio [3]: > 80% | EBV-EA activation % of TPA control (Raji [4]): 100% | EBV-EA activation % of TPA control (Raji [5]): 100% | viability at 10 molar ratio [6]: > 80% | viability at 1000 molar ratio [7]: > 80%

CC1C=CNC2=C1C(=O)c1cc(O)ccc1C2=O (configuration not stated)
EBV-EA activation % of TPA control (Raji [1]): 66.7% | viability at 100 molar ratio [2]: > 80% | viability at 500 molar ratio [3]: > 80% | EBV-EA activation % of TPA control (Raji [4]): 100% | EBV-EA activation % of TPA control (Raji [5]): 62.1% | viability at 10 molar ratio [6]: > 80% | viability at 1000 molar ratio [7]: 70%
